Results: patent US20160153032A9, “METHOD FOR PREDICTING A MANIFESTATION OF AN OUTCOME MEASURE OF A CANCER PATIENT” (Signature Diagnostics AG, priority 2013, published 2016)

Test system: patient derived xenografts (PDXs) of colorectal tumors
Assay: Therapy experiments in patient derived xenograft models, treated to control (T/C) ratio of tumor size
Type: in vivo, NMRI: nu/nu mice
Conditions: monotherapy, 67 PDX models
Procedure: Transplantation of 239 human, primary colorectal tumors of patients with colorectal cancer of all four UICC stages was performed onto nude mice. […] For each drug and each of the 67 xenograft models, five mice were treated in addition to five control animals (335 animals plus 335 controls per drug). At the end of the therapy experiment, the median diameter of the tumors (C) of the 5 control animals is devided by the median diameter of the five treated animals (T).
Shortly after surgery, original colorectal cancer tumor pieces were shipped in gentamicin containing RPMI-1640 medium to the mouse facility. After arrival at the mouse facilities they were transplanted onto immunodeficient mice and were further passaged until a stably grown tumor xenografts has developed.
Surgical colorectal tumor samples were cut into pieces of 3 to 4 mm and transplanted within 30 min s.c. to 3 to 6 immunodeficient NOD/SCID mice (Taconic); the gender of the mice was chosen according to the donor patient. Additional tissue samples were immediately snap-frozen and stored at −80° C. for genetic, genomic, and protein analyses. […] Mice were observed daily for tumor growth. At a size of about 1 cm3, tumors were removed and passaged to naive NMRI: nu/nu mice (Charles River) for chemosensitivity testing. Tumors were passaged no more than 10 times. Numerous samples from early passages were stored in the tissue bank in liquid nitrogen and used for further experiments. […] All xenografts as well as the corresponding primary tumors were subjected to histological evaluation using snap-frozen, haematoxylin-eosin-stained tissue sections.
Each of the 75 tumors was transplanted onto 20 mice (5 controls and 5 for each drug).
The chemotherapeutic response of the passagable tumors was determined in male NMRI: nu/nu mice. For that purpose, one tumor fragment each was transplanted s.c. to a number of mice. At palpable tumor size (50-100 mm^3), 6 to 8 mice each were randomized to treatment and control groups and treatment was initiated. […] Doses and schedules were chosen according to previous experience in animal experiments and represent the maximum tolerated or efficient doses. The injection volume was 0.2 ml/20 g body weight.
Tumor size was measured in two dimensions twice weekly with a caliper-like instrument. Individual tumor volumes (V) were calculated by the formula: V=(length+[width]2)/2 and related to the values at the first day of treatment (relative tumor volume). Median treated to control (T/C) values of relative tumor volume were used for the evaluation of each treatment modality and categorized according to scores (− to ++++;). The mean tumor doubling time of each xenograft model was calculated by comparing the size between 2- and 4-fold relative tumor volumes. Statistical analyses were done with the U test (Mann and Whitney) with P<0.05. The body weight of mice was determined every 3 to 4 days and the change in body weight was taken as variable for tolerability.

What does the source list for “Bevacizumab: humanized monoclonal antibody that binds to vascular endothelial growth factor A (VEGF-A)”?
Nonresponder PDXs (T/C</=25 (T/C<25)): 56; Responder PDXs (T/C</=30, tumor growth inhibited by at least 70%): 13; Nonresponder PDXs (T/C</=30): 54; Responder PDXs (T/C</=35 (T/C<35), tumor growth inhibited by at least 65%): 19; Nonresponder PDXs (T/C</=35 (T/C<35)): 48
